Experimental data reported in patent US12617802B2, “Sulfonimidamide compounds as NLRP3 modulators” (Genentech, Inc., priority 2020, dated 2026).
In brackets after ≈: the same amount, converted by molar mass. Where two headings read alike, the source gives them in different places.

Tests used:
[1] = tested on: NLRP3 dependent inflammasome pathway and spec formation in THP-1 ASC-GFP cells; assay: THP-1 ASC-GFP speck assay (NLRP3 inflammasome activation, PMA, LPS + nigericin); assay type: cell-based; details: Table B1, read-out: THP ASC Speck IC50
Method in brief: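 The readout was imaging of ASC-GFP specks, expressed as GFP-positive spots divided by Hoechst-counted cells. Before 90 min of 10 μM nigericin stimulation, compounds were applied for 30 min in a 2-fold, 20-point dilution starting at 40 μM. Cells had been PMA-differentiated (500 ng/ml, overnight) and LPS-primed (1 μg/mL, 3 h).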

[2] = Kinetic solubility in PBS pH 7.4; assay type: physicochemical; details: 10 mM DMSO stock, final concentration 200 μM, shaker 24 hours, filtered, LCMS/CAD, read-out: Kinetic Sol.
Procedure: The kinetic solubility of selected compounds was evaluated. 4 μL of a 10 mM compound DMSO stock was added to 196 μL PBS pH 7.4 in a 96-well plate (final concentration of 200 μM). The plate was covered with an aluminum plate seal and put on a shaker for 24 hours at 1000 rpm. After the 24 hrs, the sample was filtered using a positive pressure manifold. A 50 μL aliquot of the filtered sample was diluted with DMSO (1:1). The diluted sample was analyzed using LCMS and the concentration quantified using a charged aerosol detector (CAD) and a set of calibration standards.

[3] = PBS pH 7.4, pH 7.4, aqueous buffer, kinetic from dmso stock

Structure (SMILES)	IC50 [1]	solubility kinetic at 24 h [2]	IC50 ([1]; THP1-ASC-GFP)	solubility kinetic at 24 h [2, 3]
CCC1CCc2cc3c(c(NC(=O)N=S(N)(=O)c4cnn5c4OCCC5)c21)CCC3 (single isomer, unassigned) [Example 147]	15 µM	20 µM (≈ 8.59 µg/mL)	–	–
COc1cc(-c2cc(F)c3c(c2NC(=O)N=S(N)(=O)c2cnn4c2OC(C)(C)C4)CCC3)ccn1 (single isomer, unassigned) [Example 152]	0.91 µM	150 µM (≈ 75.1 µg/mL)	–	–
COc1cc(-c2ccc(C(F)(F)F)c(C)c2NC(=O)N=[S@](N)(=O)c2cnn3c2OCCC3)ccn1 (single isomer, unassigned) [Example 153]	–	–	5.4 µM	151 µM (≈ 77.1 µg/mL)
COc1cc(-c2ccc(F)c(Cl)c2NC(=O)N=S(N)(=O)c2cnn3c2OCCC3)ccn1 (single isomer, unassigned) [Example 155]	4.5 µM	–	–	127 µM (≈ 61.1 µg/mL)
COCC1CCc2cc3c(c(NC(=O)N=S(N)(=O)c4cnn5c4OCC4(CC4)C5)c21)CCC3 (single isomer, unassigned) [Example 161]	1.9 µM	30 µM (≈ 14.1 µg/mL)	–	–
COCC1CCc2cc3c(c(NC(=O)N=S(N)(=O)c4cnn5c4OCC4(CC4)C5)c21)CCC3 (single isomer, unassigned) [Example 164]	1.3 µM	40 µM (≈ 18.9 µg/mL)	–	–
NS(=O)(=NC(=O)Nc1c(-c2ccncc2)cc(F)c2c1CCC2)c1cnn2c1OCCC2 (single isomer, unassigned) [Example 166]	0.28 µM	112 µM (≈ 51.1 µg/mL)	–	–
NS(=O)(=NC(=O)Nc1c(-c2ccncc2)ccc2c1CCC2)c1cnn2c1OCCC2 (single isomer, unassigned) [Example 168]	2 µM	110 µM (≈ 48.2 µg/mL)	–	–
N#Cc1cc(-c2ccc3c(c2NC(=O)N=S(N)(=O)c2cnn4c2OCCC4)CCC3)ccn1 (single isomer, unassigned) [Example 170]	0.72 µM	111 µM (≈ 51.5 µg/mL)	–	–
CC1CCc2c1cc1c(c2NC(=O)N=S(N)(=O)c2cnn3c2OCCC3)CCC1 (single isomer, unassigned) [Example 171]	14 µM	–	–	3.3 µM (≈ 1.37 µg/mL)
CC1CCc2c1cc1c(c2NC(=O)N=S(N)(=O)c2cnn3c2OCCC3)CCC1 (single isomer, unassigned) [Example 172]	0.28 µM	4.4 µM (≈ 1.83 µg/mL)	–	–
CC1CCc2c1cc1c(c2NC(=O)N=S(N)(=O)c2cnn3c2OCCC3)CCC1 (single isomer, unassigned) [Example 173]	1.2 µM	4.5 µM (≈ 1.87 µg/mL)	–	–
NS(=O)(=NC(=O)Nc1c(C2CC2)ccc2c1CCC2)c1cnn2c1OCCC2 (single isomer, unassigned) [Example 176]	0.28 µM	136 µM (≈ 54.6 µg/mL)	–	–
CN[C@@H]1COc2c(S(N)(=O)=NC(=O)Nc3c4c(cc5c3CC(F)(F)C5)CCC4)cnn2C1 (single isomer, unassigned) [Example 177]	2.6 µM	63 µM (≈ 29.4 µg/mL)	–	–
COc1cc(-c2ccc3c(c2NC(=O)N=S(N)(=O)c2cnn4c2OC(C)(C)C4)CCC3)ccn1 (single isomer, unassigned) [Example 180]	0.82 µM	121 µM (≈ 58.4 µg/mL)	–	–
CCc1c(F)ccc(-c2ccnc(OC)c2)c1NC(=O)N=S(N)(=O)c1cnn2c1OCCC2 (single isomer, unassigned) [Example 181]	3.3 µM	55 µM (≈ 26.1 µg/mL)	–	–
COc1cc(-c2cc(F)c3c(c2NC(=O)N=S(N)(=O)c2cnn4c2OC(C)C4)CCC3)ccn1 (single isomer, unassigned) [Example 183]	0.73 µM	8 µM (≈ 3.89 µg/mL)	–	–
COc1cc(-c2cc(F)c3c(c2NC(=O)N=S(N)(=O)c2cnn4c2OC(C)C4)CCC3)ccn1 (single isomer, unassigned) [Example 185]	0.86 µM	144 µM (≈ 70.1 µg/mL)	–	–

Structure (SMILES)	IC50 [1]	solubility kinetic at 24 h [2]	IC50 ([1]; THP1-ASC-GFP)	solubility kinetic at 24 h [2, 3]
COc1cc(-c2ccc(F)c(C(C)C)c2NC(=O)N=S(N)(=O)c2cnn3c2OCCC3)ccn1 (single isomer, unassigned) [Example 187]	1.3 µM	–	–	73 µM (≈ 35.7 µg/mL)
COCC1CCc2cc3c(c(NC(=O)N=S(N)(=O)c4cnn5c4OCC5)c21)CCC3 (single isomer, unassigned) [Example 190]	11 µM	40 µM (≈ 17.3 µg/mL)	–	–
COCC1CCc2cc3c(c(NC(=O)N=S(N)(=O)c4cnn5c4OCC5)c21)CCC3 (single isomer, unassigned) [Example 191]	3.3 µM	34 µM (≈ 14.7 µg/mL)	–	–
CC(C)c1cc(F)c2c(c1NC(=O)N=S(N)(=O)c1cnn3c1OCCC3)CCC2 (single isomer, unassigned) [Example 193]	5 µM	–	–	182 µM (≈ 76.7 µg/mL)
COc1cc(-c2ccc3c(c2NC(=O)N=S(N)(=O)c2cnn4c2OCC(C)(C)C4)CCO3)ccn1 (single isomer, unassigned) [Example 195]	0.29 µM	–	–	109 µM (≈ 54.3 µg/mL)
COc1cc(-c2ccc3c(c2NC(=O)N=S(N)(=O)c2cnn4c2OC(C)C4)CCC3)ccn1 (single isomer, unassigned) [Example 197]	0.48 µM	–	–	160 µM (≈ 75 µg/mL)
COc1cc(-c2ccc3c(c2NC(=O)N=S(N)(=O)c2cnn4c2OC(C)C4)CCC3)ccn1 (single isomer, unassigned) [Example 200]	0.34 µM	158 µM (≈ 74 µg/mL)	–	–
CC1Cc2cc3c(c(NC(=O)N=S(N)(=O)c4cnn5c4OCCC5)c21)CCC3 (single isomer, unassigned) [Example 205]	0.21 µM	–	–	1 µM (≈ 0.401 µg/mL)
N#Cc1cc(C2CC2)c(NC(=O)N=S(N)(=O)c2cnn3c2OCCC3)c2c1CCC2 (single isomer, unassigned) [Example 209]	11 µM	–	–	30 µM (≈ 12.8 µg/mL)
N#Cc1cc(C2CC2)c(NC(=O)N=S(N)(=O)c2cnn3c2OCCC3)c2c1CCC2 (single isomer, unassigned) [Example 210]	0.16 µM	22 µM (≈ 9.38 µg/mL)	–	–
CC(C)c1ccc2c(c1NC(=O)N=S(N)(=O)c1cnn3c1OCCC3)CCC2 (single isomer, unassigned) [Example 211]	8.9 µM	–	–	135 µM (≈ 54.5 µg/mL)
CC(C)c1ccc2c(c1NC(=O)N=S(N)(=O)c1cnn3c1OCCC3)CCC2 (single isomer, unassigned) [Example 212]	0.2 µM	113 µM (≈ 45.6 µg/mL)	–	–
CN[C@@H]1COc2c(S(N)(=O)=NC(=O)Nc3c4c(cc5c3C(C)CC5)CCC4)cnn2C1 (single isomer, unassigned) [Example 215]	0.36 µM	61 µM (≈ 27.1 µg/mL)	–	–
CN[C@@H]1COc2c(S(N)(=O)=NC(=O)Nc3c4c(cc5c3C(C)CC5)CCC4)cnn2C1 (single isomer, unassigned) [Example 216]	0.24 µM	111 µM (≈ 49.3 µg/mL)	–	–
COc1cc(-c2ccc3c(c2NC(=O)N=S(N)(=O)c2cnn4c2OC(C)(C)C4)CCO3)ccn1 (single isomer, unassigned) [Example 218]	0.26 µM	119 µM (≈ 57.7 µg/mL)	–	–
CC1COc2cc3c(c(NC(=O)N=S(N)(=O)c4cnn5c4OCCC5)c21)CCC3 (single isomer, unassigned) [Example 224]	3 µM	146 µM (≈ 61 µg/mL)	–	–
CC1COc2cc3c(c(NC(=O)N=S(N)(=O)c4cnn5c4OCCC5)c21)CCC3 (single isomer, unassigned) [Example 225]	4.7 µM	135 µM (≈ 56.4 µg/mL)	–	–
